Test results taken from publication PMC12123601, “Light-Induced, Lysine-Targeting Irreversible Covalent Inhibition of the Human Oxygen Sensing Hydroxylase Factor Inhibiting HIF (FIH)” (Journal of the American Chemical Society, 2025).
Where two headings read alike, the source gives them in different places.

Target: T1, FIH^K106A (Homo sapiens, UniProt Q9NWT6, K106A)
T1 construct: encoding for full-length FIH with an N-terminal His6 tag or for FIH (K106A) with an N-terminal His6 tag; His6 (N); host or cells: Escherichia coli BL21
Test: Affinity-based fluorescence polarization (FP) assay with the FIH K106A variant, without and with irradiation
Format: binding
Conditions: for Ki: read-out: Binding affinity to FIH^K106A: Ki
Source text: 4 (A) Light-induced click conjugation between NBA-ZG-2291 and FIH protein. (B) Light-induced binding affinity of NBA-ZG-2291 to FIH^ WT . (C) Light-induced binding affinity of NBA-ZG-2291 to FIH^ K106A . […] TEXT PRINTED IN THE PICTURE: (B) NBA-ZG-2291: Binding affinity to FIH^WT: Ki (nM): 414 ± 14 (Irradtion time (min): 0); Binding affinity to FIH^WT: Ki (nM): 74.1 ± 1.6 (Irradtion time (min): 15); Binding affinity to FIH^WT: Ki (nM): 46.7 ± 1.4 (Irradtion time (min): 30); Binding affinity to FIH^WT: Ki (nM): 33.2 ± 0.6 (Irradtion time (min): 60); Binding affinity to FIH^WT: Ki (nM): 30.2 ± 2.0 (Irradtion time (min): 90); Binding affinity to FIH^WT: Ki (nM): 32.1 ± 0.7 (Irradtion time (min): 120) | (B) Neg-1: Binding affinity to FIH^WT: Ki (nM): 423 ± 7 (Irradtion time (min): 0); Binding affinity to FIH^WT: Ki (nM): 408 ± 30 (Irradtion time (min): 15); Binding affinity to FIH^WT: Ki (nM): 459 ± 32 (Irradtion time (min): 30); Binding affinity to FIH^WT: Ki (nM): 427 ± 17 (Irradtion time (min): 60); Binding affinity to FIH^WT: Ki (nM): 396 ± 29 (Irradtion time (min): 90); Binding affinity to FIH^WT: Ki (nM): 428 ± 15 (Irradtion time (min): 120) | (B) Neg-2: Binding affinity to FIH^WT: Ki (nM): 742 ± 65 (Irradtion time (min): 0); Binding affinity to FIH^WT: Ki (nM): 799 ± 69 (Irradtion time (min): 15); Binding affinity to FIH^WT: Ki (nM): 758 ± 13 (Irradtion time (min): 30); Binding affinity to FIH^WT: Ki (nM): 744 ± 30 (Irradtion time (min): 60); Binding affinity to FIH^WT: Ki (nM): 788 ± 36 (Irradtion time (min): 90); Binding affinity to FIH^WT: Ki (nM): 786 ± 35 (Irradtion time (min): 120) | (C) NBA-ZG-2291: Binding affinity to FIH^K106A: Ki (nM): 442 ± 12 (Irradtion time (min): 0); Binding affinity to FIH^K106A: Ki (nM): 427 ± 22 (Irradtion time (min): 15); Binding affinity to FIH^K106A: Ki (nM): 426 ± 7 (Irradtion time (min): 30); Binding affinity to FIH^K106A: Ki (nM): 420 ± 11 (Irradtion time (min): 60); Binding affinity to FIH^K106A: Ki (nM): 418 ± 5 (Irradtion time (min): 90); Binding affinity to FIH^K106A: Ki (nM): 424 ± 12 (Irradtion time (min): 120) | (C) Neg-1: Binding affinity to FIH^K106A: Ki (nM): 271 ± 14 (Irradtion time (min): 0); Binding affinity to FIH^K106A: Ki (nM): 275 ± 15 (Irradtion time (min): 15); Binding affinity to FIH^K106A: Ki (nM): 268 ± 25 (Irradtion time (min): 30); Binding affinity to FIH^K106A: Ki (nM): 266 ± 22 (Irradtion time (min): 60); Binding affinity to FIH^K106A: Ki (nM): 264 ± 41 (Irradtion time (min): 90); Binding affinity to FIH^K106A: Ki (nM): 270 ± 3 (Irradtion time (min): 120) | (C) Neg-2: Binding affinity to FIH^K106A: Ki (nM): 567 ± 37 (Irradtion time (min): 0); Binding affinity to FIH^K106A: Ki (nM): 548 ± 61 (Irradtion time (min): 15); Binding affinity to FIH^K106A: Ki (nM): 521 ± 50 (Irradtion time (min): 30); Binding affinity to FIH^K106A: Ki (nM): 627 ± 17 (Irradtion time (min): 60); Binding affinity to FIH^K106A: Ki (nM): 565 ± 10 (Irradtion time (min): 90); Binding affinity to FIH^K106A: Ki (nM): 552 ± 38 (Irradtion time (min): 120) […]
To further verify the covalent binding between NBA-ZG-2291 and Lys106, the FIH^ K106A variant was produced and purified.
3. Experimental procedures
3.1 Fluorescence polarization (FP) assays1 with FIHWT and FIHK106A pET28a vectors encoding for full-length FIH with an N-terminal His6 tag or for FIH (K106A) with an N-terminal His6 tag were purchased from Nanjing Zoonbio Biotechnology. Both the FIHWT and FIHK106A protein were expressed from the respective plasmid in Escherichia coli BL21 at 20 °C for 16 h. E. coli cells were lysed and the lysate were clarified by centrifugation. His6-tagged FIHWT or FIHK106A was purified on a HisTrap affinity column (GE Healthcare) by elution with an imidazole gradient. The final purified proteins were stored in PBS buffer.
FP assays were carried out using 384 -well plates (#3575, Corning); the polarization signal was measured using a SPARK Multi-Mode Microplate Reader (Tecan). […]

T1 sequence (Q9NWT6 whole entry K106A): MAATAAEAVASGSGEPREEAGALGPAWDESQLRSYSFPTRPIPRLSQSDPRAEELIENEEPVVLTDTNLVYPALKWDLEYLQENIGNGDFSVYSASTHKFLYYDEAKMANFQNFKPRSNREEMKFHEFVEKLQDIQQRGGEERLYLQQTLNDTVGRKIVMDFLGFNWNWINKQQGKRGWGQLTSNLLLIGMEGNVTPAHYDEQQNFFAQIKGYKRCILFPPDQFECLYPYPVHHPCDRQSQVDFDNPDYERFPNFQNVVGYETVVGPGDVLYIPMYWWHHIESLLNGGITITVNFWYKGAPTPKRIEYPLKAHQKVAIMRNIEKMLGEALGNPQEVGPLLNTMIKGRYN

Effect of irradiation time on binding affinity for the FIH^K106A variant (FP assay, varying irradiation times): remained unchanged | Ki (irradiation time 0 min): 442 ± 12 nM | Ki (irradiation time 15 min): 427 ± 22 nM | Ki (irradiation time 30 min): 426 ± 7 nM | Ki (irradiation time 60 min): 420 ± 11 nM | Ki (irradiation time 90 min): 418 ± 5 nM | Ki (irradiation time 120 min): 424 ± 12 nM
SMILES: O=C(O)CNC(=O)c1ncc(-c2cc(-c3ccc(CO)c([N+](=O)[O-])c3)no2)cc1O [NBA-ZG-2291]
